Measurements published in US6737383B1, “Herbicidal oxadiazolidines” (priority 1999, dated 2004).

Columns and labels:
wheat = experiment: Test B pre/postemergence wheat; format: in vivo, Triticum aestivum
Outline: (§1)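 Response is a visual 0-to-10 score relative to untreated plants, where 0 means no effect and 10 means complete control, taken twelve to sixteen days after application. Treatments went onto soil at planting and onto foliage of 1- to 4-leaf plants, using a surfactant-containing non-phytotoxic solvent.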

corn = experiment: Test B pre/postemergence corn; format: in vivo, Zea mays
Outline: as §1

morningglory = experiment: Test B pre/postemergence morningglory; format: in vivo, Ipomoea hederacea
Outline: as §1

wild oat = experiment: Test B pre/postemergence wild oat; format: in vivo, Avena fatua
Outline: as §1

purple nutsedge = experiment: Test B pre/postemergence purple nutsedge; format: in vivo, Cyperus rotundus
Outline: as §1

crabgrass = experiment: Test B pre/postemergence crabgrass; format: in vivo, Digitaria sanguinalis
Outline: as §1

sugar beet = experiment: Test B pre/postemergence sugar beet; format: in vivo, Beta vulgaris
Outline: as §1

duck salad = experiment: Test B flood test duck salad; format: in vivo, Heteranthera limosa
Outline: (§2)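 Each value is a visual injury score relative to controls, with 10 meaning complete control and 0 no effect. Evaluation took place twelve to sixteen days after the 2-leaf-stage plants were treated and kept in the greenhouse.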

rape = experiment: Test B pre/postemergence rape; format: in vivo, Brassica napus
Outline: as §1

rice = experiment: Test B flood test rice; format: in vivo, Oryza sativa
Outline: as §2

cocklebur = experiment: Test B pre/postemergence cocklebur; format: in vivo, Xanthium strumarium
Outline: as §1

velvetleaf = experiment: Test B pre/postemergence velvetleaf; format: in vivo, Abutilon theophrasti
Outline: as §1

bamyardgrass = experiment: Test B flood test barnyardgrass; format: in vivo, Echinochloa crus-galli
Outline: as §2

pigweed = experiment: Test B pre/postemergence pigweed; format: in vivo, Amaranthus retroflexus
Outline: as §1

blackgrass = experiment: Test B pre/postemergence blackgrass; format: in vivo, Alopecurus myosuroides
Outline: as §1

smallflower flatsedge = experiment: Test B flood test smallflower flatsedge; format: in vivo, Cyperus difformis
Outline: as §2

[1] = Postemergence, Rate 250 g/ha, scale 0 to 10
[2] = Postemergence, Rate 500 g/ha, scale of 0 to 10 where 0 is no effect and 10 is complete control
[3] = Preemergence, Rate 62 g/ha, scale 0 to 10 (0 no effect, 10 complete control)
[4] = Preemergence, Rate 125 g/ha, scale of 0 to 10 where 0 is no effect and 10 is complete control
[5] = Preemergence, Rate 250 g/ha, scale 0 to 10, 0 is no effect, 10 is complete control
[6] = Preemergence, Rate 500 g/ha, scale 0 to 10, 0 is no effect, 10 is complete control
[7] = Rate 125 g/ha, Postemergence, scale 0 to 10, 0 is no effect, 10 is complete control
[8] = Rate 62 g/ha, Postemergence, scale of 0 to 10 where 0 is no effect and 10 is complete control
[9] = Postemergence block (flood test species), Rate 250 g/ha, scale 0 to 10
[10] = Postemergence section (flood test species), Rate 500 g/ha, scale of 0 to 10 where 0 is no effect and 10 is complete control
[11] = Rate 62 g/ha, Postemergence (flood test species), scale of 0 to 10 where 0 is no effect and 10 is complete control
[12] = Rate 125 g/ha, Postemergence section (flood test species), scale 0 to 10, 0 is no effect, 10 is complete control
[13] = Postemergence, Rate 125 g/ha, scale 0 to 10, 0 is no effect, 10 is complete control
[14] = Postemergence, Rate 250 g/ha, scale 0 to 10, 0 is no effect, 10 is complete control
[15] = Postemergence (flood test), Rate 125 g/ha, scale 0 to 10, 0 is no effect, 10 is complete control
[16] = flood test species, listed under Postemergence, Rate 250 g/ha, scale 0 to 10, 0 is no effect, 10 is complete control

Compound: CC(C)N(C(=O)n1oc(=O)n(C(C)C#N)c1=O)c1ccc(F)cc1F (stereo not shown) [Compound 432]
- Wheat plant response rating (wheat; [1]): 0
- Wheat plant response rating (wheat; [2]): 0
- Plant response rating, Wheat (wheat; [3]): 0
- Plant response rating, Wheat (wheat; [4]): 0
- Wheat plant response rating (wheat; [5]): 0
- Wheat plant response rating (wheat; [6]): 0
- Wheat plant response rating (wheat; [7]): 0
- Corn plant response rating (corn; [1]): 0
- Corn plant response rating (corn; [2]): 0
- Plant response rating, Corn (corn; [3]): 0
- Plant response rating, Corn (corn; [4]): 0
- Corn plant response rating (corn; [5]): 0
- Corn plant response rating (corn; [6]): 0
- Corn plant response rating (corn; [8]): 0
- Corn plant response rating (corn; [7]): 0
- Morningglory plant response rating (morningglory; [1]): 1
- Morningglory plant response rating (morningglory; [2]): 2
- Plant response rating, Morningglory (morningglory; [3]): 0
- Plant response rating, Morningglory (morningglory; [4]): 0
- Morningglory plant response rating (morningglory; [5]): 0
- Morningglory plant response rating (morningglory; [6]): 0
- Morningglory plant response rating (morningglory; [7]): 1
- Wild oats plant response rating (wild oat; [1]): 0
- Wild oats plant response rating (wild oat; [2]): 3
- Plant response rating, Wild oats (wild oat; [3]): 0
- Plant response rating, Wild oats (wild oat; [4]): 0
- Wild oats plant response rating (wild oat; [5]): 0
- Wild oats plant response rating (wild oat; [6]): 0
- Wild oats plant response rating (wild oat; [7]): 0
- Nutsedge plant response rating (purple nutsedge; [1]): 0
- Nutsedge plant response rating (purple nutsedge; [2]): 0
- Plant response rating, Nutsedge (purple nutsedge; [3]): 0
- Plant response rating, Nutsedge (purple nutsedge; [4]): 0
- Nutsedge plant response rating (purple nutsedge; [5]): 0
- Nutsedge plant response rating (purple nutsedge; [6]): 0
- Nutsedge plant response rating (purple nutsedge; [7]): 0
- Crabgrass plant response rating (crabgrass; [1]): 6
- Crabgrass plant response rating (crabgrass; [2]): 6
- Plant response rating, Crabgrass (crabgrass; [3]): 3
- Plant response rating, Crabgrass (crabgrass; [4]): 5
- Crabgrass plant response rating (crabgrass; [5]): 8
- Crabgrass plant response rating (crabgrass; [6]): 9
- Crabgrass plant response rating (crabgrass; [8]): 0
- Crabgrass plant response rating (crabgrass; [7]): 0
- Sugarbeets plant response rating (sugar beet; [1]): 0
- Sugarbeets plant response rating (sugar beet; [2]): 0
- Plant response rating, Sugarbeets (sugar beet; [3]): 0
- Plant response rating, Sugarbeets (sugar beet; [4]): 0
- Sugarbeets plant response rating (sugar beet; [5]): 0
- Sugarbeets plant response rating (sugar beet; [6]): 0
- Sugarbeets plant response rating (sugar beet; [7]): 0
- Ducksalad plant response rating (duck salad; [9]): 0
- Ducksalad plant response rating (duck salad; [10]): 0
- Ducksalad plant response rating (duck salad; [11]): 0
- Ducksalad plant response rating (duck salad; [12]): 0
- Rape plant response rating (rape; [1]): 0
- Rape plant response rating (rape; [2]): 0
- Plant response rating, Rape (rape; [3]): 0
- Plant response rating, Rape (rape; [4]): 0
- Rape plant response rating (rape; [5]): 0
- Rape plant response rating (rape; [6]): 0
- Rape plant response rating (rape; [7]): 0
- Rice plant response rating (rice; [9]): 0
- Rice plant response rating (rice; [10]): 0
- Rice plant response rating (rice; [12]): 0
- Cocklebur plant response rating (cocklebur; [1]): 0
- Cocklebur plant response rating (cocklebur; [2]): 0
- Plant response rating, Cocklebur (cocklebur; [3]): 0
- Plant response rating, Cocklebur (cocklebur; [4]): 0
- Cocklebur plant response rating (cocklebur; [5]): 0
- Cocklebur plant response rating (cocklebur; [6]): 0
- Cocklebur plant response rating (cocklebur; [8]): 0
- Cocklebur plant response rating (cocklebur; [7]): 0
- Velvetleaf plant response rating (velvetleaf; [1]): 0
- Velvetleaf plant response rating (velvetleaf; [2]): 2
- Plant response rating, Velvetleaf (velvetleaf; [3]): 0
- Plant response rating, Velvetleaf (velvetleaf; [4]): 0
- Velvetleaf plant response rating (velvetleaf; [5]): 0
- Velvetleaf plant response rating (velvetleaf; [6]): 0
- Velvetleaf plant response rating (velvetleaf; [7]): 0
- Barnyardgrass plant response rating (bamyardgrass; [9]): 0
- Barnyardgrass plant response rating (bamyardgrass; [10]): 0
- Barnyardgrass plant response rating (bamyardgrass; [11]): 0
- Barnyardgrass plant response rating (bamyardgrass; [12]): 0
- Redroot pigweed plant response rating (pigweed; [1]): 0
- Redroot pigweed plant response rating (pigweed; [2]): 0
- Plant response rating, Redroot pigweed (pigweed; [3]): 0
- Plant response rating, Redroot pigweed (pigweed; [4]): 0
- Redroot pigweed plant response rating (pigweed; [5]): 0
- Redroot pigweed plant response rating (pigweed; [6]): 0
- Redroot pigweed plant response rating (pigweed; [7]): 0
- Blackgrass plant response rating (blackgrass; [1]): 4
- Blackgrass plant response rating (blackgrass; [2]): 4
- Plant response rating, Blackgrass (blackgrass; [3]): 0
- Plant response rating, Blackgrass (blackgrass; [4]): 0
- Blackgrass plant response rating (blackgrass; [5]): 0
- Blackgrass plant response rating (blackgrass; [6]): 2
- Blackgrass plant response rating (blackgrass; [8]): 0
- Blackgrass plant response rating (blackgrass; [7]): 2
- S. Flatsedge plant response rating (smallflower flatsedge; [9]): 0
- S. Flatsedge plant response rating (smallflower flatsedge; [10]): 0
- S. Flatsedge plant response rating (smallflower flatsedge; [12]): 0

Compound: CCOC(=O)C=C(Cn1c(=O)on(C(=O)N(c2ccc(F)cc2)C(C)C)c1=O)OCC [Compound 396]
- Wheat plant response rating (wheat; [2]): 0
- Plant response rating, Wheat (wheat; [3]): 0
- Plant response rating, Wheat (wheat; [4]): 0
- Wheat plant response rating (wheat; [5]): 0
- Wheat plant response rating (wheat; [6]): 0
- Wheat plant response rating (wheat; [8]): 0
- Plant response rating, Corn (corn; [13]): 0
- Plant response rating, Corn (corn; [14]): 0
- Corn plant response rating (corn; [2]): 0
- Plant response rating, Corn (corn; [3]): 0
- Plant response rating, Corn (corn; [4]): 0
- Corn plant response rating (corn; [5]): 0
- Corn plant response rating (corn; [6]): 0
- Corn plant response rating (corn; [8]): 0
- Plant response rating, Morningglory (morningglory; [14]): 8
- Morningglory plant response rating (morningglory; [2]): 8
- Plant response rating, Morningglory (morningglory; [3]): 0
- Plant response rating, Morningglory (morningglory; [4]): 0
- Morningglory plant response rating (morningglory; [5]): 0
- Morningglory plant response rating (morningglory; [6]): 0
- Morningglory plant response rating (morningglory; [8]): 0
- Wild oats plant response rating (wild oat; [2]): 0
- Plant response rating, Wild oats (wild oat; [3]): 0
- Plant response rating, Wild oats (wild oat; [4]): 0
- Wild oats plant response rating (wild oat; [5]): 2
- Wild oats plant response rating (wild oat; [6]): 4
- Wild oats plant response rating (wild oat; [8]): 0
- Plant response rating, Nutsedge (purple nutsedge; [14]): 0
- Nutsedge plant response rating (purple nutsedge; [2]): 0
- Plant response rating, Nutsedge (purple nutsedge; [3]): 0
- Plant response rating, Nutsedge (purple nutsedge; [4]): 0
- Nutsedge plant response rating (purple nutsedge; [5]): 0
- Nutsedge plant response rating (purple nutsedge; [6]): 0
- Nutsedge plant response rating (purple nutsedge; [8]): 0
- Plant response rating, Crabgrass (crabgrass; [13]): 0
- Plant response rating, Crabgrass (crabgrass; [14]): 2
- Crabgrass plant response rating (crabgrass; [2]): 2
- Plant response rating, Crabgrass (crabgrass; [3]): 0
- Plant response rating, Crabgrass (crabgrass; [4]): 7
- Crabgrass plant response rating (crabgrass; [5]): 10
- Crabgrass plant response rating (crabgrass; [6]): 10
- Crabgrass plant response rating (crabgrass; [8]): 0
- Plant response rating, Sugarbeets (sugar beet; [14]): 0
- Sugarbeets plant response rating (sugar beet; [2]): 3
- Plant response rating, Sugarbeets (sugar beet; [3]): 0
- Plant response rating, Sugarbeets (sugar beet; [4]): 0
- Sugarbeets plant response rating (sugar beet; [5]): 0
- Sugarbeets plant response rating (sugar beet; [6]): 2
- Sugarbeets plant response rating (sugar beet; [8]): 0
- Plant response rating, Ducksalad (duck salad; [15]): 0
- Ducksalad plant response rating (duck salad; [10]): 0
- Ducksalad plant response rating (duck salad; [11]): 0
- Plant response rating, Ducksalad (duck salad; [16]): 0
- Plant response rating, Rape (rape; [14]): 0
- Rape plant response rating (rape; [2]): 6
- Plant response rating, Rape (rape; [3]): 0
- Plant response rating, Rape (rape; [4]): 0
- Rape plant response rating (rape; [5]): 0
- Rape plant response rating (rape; [6]): 0
- Rape plant response rating (rape; [8]): 0
- Rice plant response rating (rice; [10]): 0
- Rice plant response rating (rice; [11]): 0
- Plant response rating, Rice (rice; [16]): 0
- Plant response rating, Cocklebur (cocklebur; [13]): 0
- Plant response rating, Cocklebur (cocklebur; [14]): 0
- Cocklebur plant response rating (cocklebur; [2]): 0
- Plant response rating, Cocklebur (cocklebur; [3]): 0
- Plant response rating, Cocklebur (cocklebur; [4]): 0
- Cocklebur plant response rating (cocklebur; [5]): 0
- Cocklebur plant response rating (cocklebur; [6]): 0
- Cocklebur plant response rating (cocklebur; [8]): 0
- Plant response rating, Velvetleaf (velvetleaf; [14]): 0
- Velvetleaf plant response rating (velvetleaf; [2]): 0
- Plant response rating, Velvetleaf (velvetleaf; [3]): 0
- Plant response rating, Velvetleaf (velvetleaf; [4]): 0
- Velvetleaf plant response rating (velvetleaf; [5]): 0
- Velvetleaf plant response rating (velvetleaf; [6]): 0
- Velvetleaf plant response rating (velvetleaf; [8]): 0
- Plant response rating, Barnyardgrass (bamyardgrass; [15]): 0
- Barnyardgrass plant response rating (bamyardgrass; [10]): 0
- Barnyardgrass plant response rating (bamyardgrass; [11]): 0
- Plant response rating, Barnyardgrass (bamyardgrass; [16]): 0
- Plant response rating, Redroot pigweed (pigweed; [14]): 0
- Redroot pigweed plant response rating (pigweed; [2]): 0
- Plant response rating, Redroot pigweed (pigweed; [3]): 0
- Plant response rating, Redroot pigweed (pigweed; [4]): 0
- Redroot pigweed plant response rating (pigweed; [5]): 4
- Redroot pigweed plant response rating (pigweed; [6]): 8
- Redroot pigweed plant response rating (pigweed; [8]): 0
- Plant response rating, Blackgrass (blackgrass; [13]): 2
- Plant response rating, Blackgrass (blackgrass; [14]): 3
- Blackgrass plant response rating (blackgrass; [2]): 6
- Plant response rating, Blackgrass (blackgrass; [3]): 0
- Plant response rating, Blackgrass (blackgrass; [4]): 0
- Blackgrass plant response rating (blackgrass; Preemergence, Rate 250 g/ha, scale of 0 to 10 where 0 is no effect and 10 is complete control): 3
- Blackgrass plant response rating (blackgrass; [6]): 5
- Blackgrass plant response rating (blackgrass; [8]): 0
- S. Flatsedge plant response rating (smallflower flatsedge; [10]): 0
- S. Flatsedge plant response rating (smallflower flatsedge; [11]): 0
- Plant response rating, S. Flatsedge (smallflower flatsedge; [16]): 0
